From paper PMC11971462, “Generation and validation of a novel multitarget small molecule in glioblastoma” (Cell Death & Disease, 2025)

Test system: GNS166 cells
Assay: Label-free proteomics differential expression
Type: cell-based, human
Description: Proteomic studies were performed by the Proteomics Facility of the CIC bioGUNE by label-free relative quantification on nLC MS/MS. […] In both approaches, the top 20 enriched terms were plotted and the pathways were clustered using divisive hierarchical clustering based on pairwise Jaccard distances.

C#CCN(Cc1cc2cc(OCCCN3CCCCC3)ccc2n1S(=O)(=O)c1ccccc1)C(=O)CCCCCCC(=O)NO [DDI]
Direction TENS3_HUMAN (protein Q68CZ2): Down | LogFC TENS3_HUMAN (protein Q68CZ2): -3.364 | LogFC LARP4_HUMAN (protein Q71RC2 GN=LARP4): 0.7689 | LogFC PEG10_HUMAN (protein Q86TG7 GN=PEG10): 3.16 | LogFC SETD3_HUMAN (protein Q86TU7 GN=SETD3): 0.5021 | Direction ACOT1_HUMAN (protein Q86TX2): Down | LogFC ACOT1_HUMAN (protein Q86TX2): -1.83 | LogFC PABP2_HUMAN (protein Q86U42 GN=PABPN1): -1.1218 | Direction PB1_HUMAN (protein Q86U86): Down | LogFC PB1_HUMAN (protein Q86U86): -2.078 | Direction PHLB1_HUMAN (protein Q86UU1): Down | LogFC PHLB1_HUMAN (protein Q86UU1): -2.257 | Direction DTX2_HUMAN (protein Q86UW9): Down | LogFC DTX2_HUMAN (protein Q86UW9): -1.305 | LogFC LUZP1_HUMAN (protein Q86V48 GN=LUZP1): 0.5884 | LogFC THOC4_HUMAN (protein Q86V81 GN=ALYREF): -0.9542 | Direction IQGA3_HUMAN (protein Q86VI3): Down | LogFC IQGA3_HUMAN (protein Q86VI3): -2.742 | Direction MET16_HUMAN (protein Q86W50): Down | LogFC MET16_HUMAN (protein Q86W50): -1.7557 | LogFC CCD25_HUMAN (protein Q86WR0 GN=CCDC25): 2.202 | LogFC NIT1_HUMAN (protein Q86X76 GN=NIT1): 0.9607 | Direction CNDG2_HUMAN (protein Q86XI2): Down | LogFC CNDG2_HUMAN (protein Q86XI2): -2.11 | Direction ANKL2_HUMAN (protein Q86XL3): Down | LogFC ANKL2_HUMAN (protein Q86XL3): -0.7885 | LogFC DDX42_HUMAN (protein Q86XP3 GN=DDX42): -0.6019 | Direction VRK2_HUMAN (protein Q86Y07): Down | LogFC VRK2_HUMAN (protein Q86Y07): -1.564 | LogFC RAB43_HUMAN (protein Q86YS6 GN=RAB43): -1.528 | Direction RFT1_HUMAN (protein Q96AA3): Down | LogFC RFT1_HUMAN (protein Q96AA3): -0.9928 | Direction TTC17_HUMAN (protein Q96AE7): Down | LogFC TTC17_HUMAN (protein Q96AE7): -1.296 | LogFC PBIP1_HUMAN (protein Q96AQ6 GN=PBXIP1): 1.536 | LogFC SARAF_HUMAN (protein Q96BY9 GN=SARAF): 2.225 | LogFC ACSF2_HUMAN (protein Q96CM8 GN=ACSF2): 1.4396 | LogFC GCP3_HUMAN (protein Q96CW5 GN=TUBGCP3): -1.184 | LogFC RMXL1_HUMAN (protein Q96E39 GN=RBMXL1): 1.251 | LogFC SGTB_HUMAN (protein Q96EQ0 GN=SGTB): 0.9619 | Direction WDR34_HUMAN (protein Q96EX3): Down | LogFC WDR34_HUMAN (protein Q96EX3): -2.769 | LogFC DYL2_HUMAN (protein Q96FJ2 GN=DYNLL2): 1.408 | Direction CERS2_HUMAN (protein Q96G23): Down | LogFC CERS2_HUMAN (protein Q96G23): -1.352 | Direction AURKB_HUMAN (protein Q96GD4): Down | LogFC AURKB_HUMAN (protein Q96GD4): -0.8936 | Direction TOE1_HUMAN (protein Q96GM8): Down | LogFC TOE1_HUMAN (protein Q96GM8): -1.175 | Direction ITCH_HUMAN (protein Q96J02): Down | LogFC ITCH_HUMAN (protein Q96J02): -0.7634 | Direction TOPK_HUMAN (protein Q96KB5): Down | LogFC TOPK_HUMAN (protein Q96KB5): -2.0632 | Direction EHMT2_HUMAN (protein Q96KQ7): Down | LogFC EHMT2_HUMAN (protein Q96KQ7): -1.8 | Direction EP400_HUMAN (protein Q96L91): Down | LogFC EP400_HUMAN (protein Q96L91): -2.0331 | Direction TRI47_HUMAN (protein Q96LD4): Down | LogFC TRI47_HUMAN (protein Q96LD4): -1.137 | LogFC FXL18_HUMAN (protein Q96ME1 GN=FBXL18): 0.7929 | LogFC DCBD2_HUMAN (protein Q96PD2 GN=DCBLD2): -0.7605 | LogFC NED4L_HUMAN (protein Q96PU5 GN=NEDD4L): 1.365 | LogFC S38A2_HUMAN (protein Q96QD8 GN=SLC38A2): 0.9305 | Direction MCCA_HUMAN (protein Q96RQ3): Down | LogFC MCCA_HUMAN (protein Q96RQ3): -0.7659 | Direction INT14_HUMAN (protein Q96SY0): Down | LogFC INT14_HUMAN (protein Q96SY0): -0.8896 | Direction RSF1_HUMAN (protein Q96T23): Down | LogFC RSF1_HUMAN (protein Q96T23): -2.084 | Direction UHRF1_HUMAN (protein Q96T88): Down | LogFC UHRF1_HUMAN (protein Q96T88): -2.206 | Direction VIGLN_HUMAN (protein Q00341): Down | LogFC VIGLN_HUMAN (protein Q00341): -1.004 | Direction PAR14_HUMAN (protein Q460N5): Down | LogFC PAR14_HUMAN (protein Q460N5): -1.711 | LogFC CDK5_HUMAN (protein Q00535 GN=CDK5): 1.129 | LogFC M17L2_HUMAN (protein Q567V2 GN=MPV17L2): 1.68 | LogFC PURA_HUMAN (protein Q00577 GN=PURA): 0.4477 | LogFC SFT2C_HUMAN (protein Q587I9 GN=SFT2D3): -1.885 | LogFC ACD11_HUMAN (protein Q709F0 GN=ACAD11): -0.7894 | LogFC CAP1_HUMAN (protein Q01518 GN=CAP1): 0.6335 | Direction OTUD4_HUMAN (protein Q01804): Down | LogFC OTUD4_HUMAN (protein Q01804): -1.044 | Direction BDH_HUMAN (protein Q02338): Down | LogFC BDH_HUMAN (protein Q02338): -0.9278 | LogFC DSC2_HUMAN (protein Q02487 GN=DSC2): 2.478 | LogFC AKA12_HUMAN (protein Q02952 GN=AKAP12): 2.896 | LogFC KIME_HUMAN (protein Q03426 GN=MVK): -0.3731 | Direction ERCC6_HUMAN (protein Q03468): Down | LogFC ERCC6_HUMAN (protein Q03468): -0.8508 | Direction TAP1_HUMAN (protein Q03518): Down | LogFC TAP1_HUMAN (protein Q03518): -0.8528 | Direction TAP2_HUMAN (protein Q03519): Down | LogFC TAP2_HUMAN (protein Q03519): -0.8847 | Direction GLGB_HUMAN (protein Q04446): Down | LogFC GLGB_HUMAN (protein Q04446): -0.6914 | Direction SRS11_HUMAN (protein Q05519): Down | LogFC SRS11_HUMAN (protein Q05519): -0.4029 | Direction FOLC_HUMAN (protein Q05932): Down | LogFC FOLC_HUMAN (protein Q05932): -1.856 | LogFC PUR1_HUMAN (protein Q06203 GN=PPAT): 0.9093 | LogFC GFPT1_HUMAN (protein Q06210 GN=GFPT1): -0.4508 | LogFC PRDX1_HUMAN (protein Q06830 GN=PRDX1): 1.081 | Direction B2CL1_HUMAN (protein Q07817): Down | LogFC B2CL1_HUMAN (protein Q07817): -1.289 | Direction RHG01_HUMAN (protein Q07960): Down | LogFC RHG01_HUMAN (protein Q07960): -0.6872 | Direction AHNK_HUMAN (protein Q09666): Down | LogFC AHNK_HUMAN (protein Q09666): -0.5648 | Direction CPSF1_HUMAN (protein Q10570): Down | LogFC CPSF1_HUMAN (protein Q10570): -0.5217 | LogFC SCRN1_HUMAN (protein Q12765 GN=SCRN1): -0.7259 | Direction CDC20_HUMAN (protein Q12834): Down | LogFC CDC20_HUMAN (protein Q12834): -2.397
